pIC50: −log10 of the molar value.

The source of these data is patent US11572369B2, “Bicyclic pyridine compositions and methods of using the same for cancer therapy” (UNIVERSITY OF SOUTH CAROLINA, priority 2019, dated 2023).

The subject of one data set is CDK8/19. As to the kind of experiment: NFκB Activity Assay (NFκB luciferase reporter, parental 293 cells). The data set is classed as cell-based. The settings on record: read-out: Inhibition Potency HEK293-NFkB-Luc Assay. Background: Reporter assays use an easily measured gene product as a stand-in for the process of interest.
Data set [1] has as its system luciferase-expressing MV4-11 cells. As to the kind of experiment: MV4-11 leukemia in NSG mice, bioluminescence imaging. The data set is classed as in vivo, mouse. The settings on record: for inhibition of leukemia growth (BLI): 23 days, NSG mice. On the procedure: Assay protocol. For in vivo studies, 7-week-old female NSG mice (Jackson Laboratories) were injected with 2×10^6 luciferase-expressing MV4-11 cells in the tail vein. Following engraftment, BLI was performed on the inoculated mice 5 days after cell inoculation. After BLI, the mice were sorted into two matching cohorts of 10 mice and one cohort of 5 mice. BLI detection was done with IVIS Lumina II Series Hardware for In-Vivo Imaging with optional XFOV lens and Living Image software. The IVIS setting for sorting mice into cohorts was set for high sensitivity: Bin 8, F1.2, 180 sec. Subsequent exposures (week 1-5) were set for increased resolution: Bin 4, F1.2, 120 sec.
Treatment was initiated on day 6 following cell-inoculation and continued for 23 days. Ten mice received Vehicle only (5% carboxylmethyl cellulose) by gavage (200 μl). […] This diet matches the diet used for normal mouse feeding, with the exception of added dye and 15u. The control MV4-11 xenografted mice (Vehicle) developed a vigorous tumor population as detected by BLI (FIG. 10B-10C). […] Survival of the mice post treatment was monitored.

For a further data set, the system named is MDA-MB-468 xenografts. The data set is described as follows: MDA-MB-468 xenografts in NSG mice. It counts as in vivo, mouse. Particulars: 66 days. On the procedure:
To evaluate the effect of CDK8/19 inhibition on in vivo growth of MDA-MB-468 xenografts, 1 million cells with 40% Matrigel ([…] total volume) were injected s.c. into the right flanks of immunodeficient NSG female mice (9 weeks old). 11 days after inoculation, mice were randomized by tumor size into two groups (n=9), with the average tumor volume 115 mm^3 in each group.

The nature of data set [2]: Mouse oral PK of 15u/15w mixture at 30 mg/kg. The settings on record: female CD1 mice, oral 30 mg/kg of each compound, latest timepoint 8 hrs.
A short description of the next data set: Mouse PK, oral 1 mg/kg. The data set is classed as in vivo. Particulars: female, FVB, serum, mice, oral (gavage) 1 mg/kg.
Data set [3] in a line: MTD study, oral gavage b.i.d. 14 days, CD-1 mice. Particulars: for detrimental effects: 14 days. It counts as in vivo, mouse. As to the method:
The highest dose (120 mg/kg b.i.d.) caused about 10% body weight loss in female mice after 7-10 days of treatment but no further deterioration was observed through the rest of the treatment period (FIG. 12A).

A short description of the next data set: Mouse PK, intravenous. It counts as in vivo. Particulars: female FVB mice, i.v. 0.5 mg/kg, mixture. On the procedure: Pharmacokinetics (PK) Assay. To measure mouse pharmacokinetics (PK), thienopyridine derivatives were dissolved in 5% dextrose and administered to female FVB mice at different dosing conditions; blood samples were collected at different time points and compound concentrations in the serum were measured by LC/MS/MS.

The subject of a further data set is MYC-CAP-CR cells. The data set is described as follows: Short-term cell proliferation assay, MYC-CAP-CR. The data set is classed as cell-based, murine. The settings on record: androgen-containing media.
Setting [4] is: medicated diet 250 ppm plus daily gavage 5 then 8 mg/kg.

As for `[2H]C([2H])([2H])N(C(=O)c1ccc(N2CCCN(c3ccnc4sc(C(N)=O)c(N)c34)CC2)cc1)C([2H])([2H])[2H]` [15u_D6, 3-amino-4-(4-(4-(bis(methyl-d3)carbamoyl)phenyl)-1,4-diazepan-1-yl)thieno[2,3-b]pyridine-2-carboxamide], the pIC50 with CDK8/19 is 8.11.
In the case of `CN(C)C(=O)c1ccc(N2CCCN(c3ccnc4sc(C(N)=O)c(N)c34)CC2)cc1` [15u, 3-amino-4-(4-(4-(dimethylcarbamoyl)phenyl)-1,4-diazepan-1-yl)thieno[2,3-b]pyridine-2-carboxamide], in data set [1] (30 mg/kg twice daily by gavage), the “inhibition of leukemia growth (BLI)” value was 94%. Also, the “inhibition of leukemia growth (BLI)” value in data set [1] (medicated chow containing 15u at 1 g/kg) amounted to 99.7%. The survival post treatment entry in data set [1] (oral gavage, FIG. 10D) is “superior survival rates”. The mouse body weights entry with MDA-MB-468 xenografts (long-term treatment) is listed as “no detrimental effects”. Further, in the data set on MDA-MB-468 xenografts (setting [4]), the final tumor weights result is reported as “significantly lower” and the tumor volume entry is on record as “significant reduction in tumor volume”. Also, the “average serum concentration at 8 hrs as % of Cmax” value in data set [2] is reported as 64.4%. In addition, in the data set “Mouse PK, oral 1 mg/kg”, the AUC (commonly concentration integrated over time) was 79.3 ng·h/mL and the half-life – broadly, the time in which the quantity being followed falls by half – was 78 min. The bioavailability (as a rule, dose-corrected exposure relative to a reference, in per cent) in the data set “Mouse PK, oral 1 mg/kg” (read-out: Bioavailability (F %)) was determined as 43%. In addition, the body weight loss result in data set [3] (female CD-1 mice, 120 mg/kg b.i.d., after 7-10 days of treatment) is recorded as “about 10%”. In data set [3] (female CD-1 mice, doses up to 60 mg/kg b.i.d.), the detrimental effects result is “No detrimental effects”. For the same compound, the detrimental effects entry in data set [3] (male CD-1 mice, 60 and 120 mg/kg b.i.d.) is given as “No detrimental effects”. Moreover, the Elimination rate in “Mouse PK, intravenous” is 4.03 h⁻¹. In “Mouse PK, intravenous” (mouse, serum, iv), the AUC was found to be 92.1 ng·h/mL, the C0 turned out to be 328 ng/mL, the distribution volume (Vd) (commonly the apparent volume that relates the amount in the body to the concentration in plasma or blood) was found to be 1.52 L/kg and the half-life is 10.2 min. Moreover, the MYC-CAP-CR cell growth result in the data set with MYC-CAP-CR cells is listed as “little effect”.
